{"source": "patent US5552267A", "about": "“Solution for prolonged organ preservation” (priority 1994, dated 1996)", "system": "lung", "assay": "orthotopic rat left lung transplantation, cGMP series (hemodynamics, oxygenation, recipient survival)", "type": "in vivo, rat (male Lewis)", "description": "Orthotopic rat left lung transplantation was accomplished using inbred male Lewis rats (250-300 gms), using a modification of a previously described technique^29. The donor rat was anesthetized and heparinized (500 U intravenously), and endotracheal intubation was performed by inserting a 16 gauge angiocatheter into the trachea using blunt cervical dissection, after which the rat was ventilated with room air at a constant rate (100 breaths/minute) and tidal volume (2.5 ml), using a Harvard rodent ventilator. […] The pulmonary artery (PA) and pulmonary vein (PV) were divided, the bronchus ligated with the lung partially inflated and then divided, and the lung removed. The vascular stumps were each pulled through a small plastic cylinder, and a lip of vessel was turned back around the edge and secured in place with a suture to form a \"cuff.\" A small plastic cylinder was inserted into the bronchial stump and secured, and the lung was then wrapped in gauze and submerged in cold preservation solution for the desired interval.\nThe recipient rat (gender/size/strain-matched) was similarly anesthetized and intubated (ventilated with 100% oxygen), but not heparinized. A left thoracotomy was performed, the hilum was dissected, and the left bronchus, PA, and PV were isolated, cross-clamped, divided and the native lung was removed from the field. The PA and PV stumps were rinsed with heparinized saline to remove any clot. The donor lung was brought onto the surgical field, and the cylinder (bronchus) and cuffs (PA and PV) were connected rapidly to their respective structures with a simple staying suture. This cuff technique permitted rapid approximation of donor and recipient tissues with no contact of a foreign substance with the luminal vascular surface. The hilar cross-clamp was released, re-establishing blood flow, and the bronchus tie was removed, enabling gas exchange. A snare was then passed around the right PA, and a Millar catheter (2F; Millar Instruments,Houston, Tex.) was introduced through a small hole (surrounded by a pursestring) into the main PA; similarly, a Millar catheter was introduced into the left atrium (LA). A flow probe (Transonics, Ithaca, N.Y.) was then placed around the main PA. Arterial blood gas sampling performed via the left femoral artery.\nOnline hemodynamic monitoring was accomplished using MacLab and a Macintosh IIci computer. The hemodynamic parameters that were measured included PA pressure (mm Hg), blood flow (ml/min), LA pressure (mm Hg), as well as arterial oxygen tension (mm Hg) during inspiration of 100% oxygen; pO2 was analyzed with a model ABL-2 dissolved gas analyzer (Radiometer, Copenhagen, Denmark). Pulmonary vascular resistances (PVRs) were calculated as [mean PA pressure-LA pressure]/PA flow. The native lung supported the recipient during the period of warm ischemia (the period during which the donor lung was removed from cold preservation until the time of reperfusion, <10 min. in all instances), but immediately following rapid hemodynamic instrumentation and acquisition of baseline measurements, the native (right) PA was then ligated, and serial measurements (representative solely of the transplanted lung) were taken every five minutes for 30 minutes. Because the native lung was effectively removed from the circulation by ligation of the right PA, these measurements represent function of the transplanted lung. Recipient death was identified by the cessation of cardiac mechanical activity observed through the thoracotomy.\nPreservation solutions were freshly made and coded by a technician not otherwise involved in the experiments, according to a general plan which included both control and experimental groups. […]", "key": {"[1]": {"details": "6 h in EC, 8-Br-cGMP 0.5 mM where added"}}}
{"smiles": "Nc1nc2c(nc(Br)n2[C@@H]2O[C@@H]3COP(=O)(O)O[C@H]3[C@H]2O)c(=O)[nH]1", "note": "[8-Br-cGMP, 8-bromoguanosine-3'5' cyclic monophosphate]", "values": [{"measurement": "recipient survival", "setting": "4 h preservation in LR", "result": 86, "unit": "%"}, {"measurement": "arterial oxygenation", "setting": "[1]", "result": "474±41", "unit": "mm Hg"}, {"measurement": "pulmonary arterial blood flow", "setting": "[1]", "result": "26 ± 2.3", "unit": "mL/min"}, {"measurement": "pulmonary vascular resistance", "setting": "[1]", "result": "1.1±0.14", "unit": "Woods units×10^-3"}, {"measurement": "recipient survival", "setting": "[1]", "result": 100, "unit": "%"}, {"measurement": "concentration of maximal beneficial effect", "setting": "range 0.005 to 0.5 mM, 6 h in EC", "result": 0.5, "unit": "mM"}]}
